Source: patent publication US20120046273A1, “COMPOUNDS AND COMPOSITIONS FOR COGNITION-ENHANCEMENT, METHODS OF MAKING, AND METHODS OF TREATING” (MITHRIDION, INC., priority 2009, published 2012)

Experiments:
in vivo = details: rat, po
human FMO1 Supersomes = biological target: T1, human FMO1 Supersomes (Homo sapiens, UniProt Q01740); test: Metabolism by flavin monoxygenase 1 (FMO1) Supersomes; type: in vitro ADME
T1 construct: purchased BD Biosciences 456241
T1 sequence (Q01740 1-532): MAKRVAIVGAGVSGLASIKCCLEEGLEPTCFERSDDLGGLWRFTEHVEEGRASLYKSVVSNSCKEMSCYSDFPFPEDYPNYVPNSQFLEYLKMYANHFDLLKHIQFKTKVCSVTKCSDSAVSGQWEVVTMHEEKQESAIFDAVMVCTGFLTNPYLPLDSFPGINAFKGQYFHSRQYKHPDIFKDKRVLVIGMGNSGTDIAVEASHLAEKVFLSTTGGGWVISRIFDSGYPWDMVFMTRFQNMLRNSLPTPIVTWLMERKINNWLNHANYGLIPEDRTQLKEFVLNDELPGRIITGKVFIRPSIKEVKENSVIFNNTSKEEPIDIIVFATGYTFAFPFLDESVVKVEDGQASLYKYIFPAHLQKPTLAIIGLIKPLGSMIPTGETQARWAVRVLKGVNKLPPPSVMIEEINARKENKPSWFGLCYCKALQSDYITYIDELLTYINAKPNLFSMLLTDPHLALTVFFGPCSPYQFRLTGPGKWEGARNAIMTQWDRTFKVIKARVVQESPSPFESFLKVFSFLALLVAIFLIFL
Method: […] Aliquots were removed every 10 minutes, and 1% formic acid was added to halt the reaction. Samples were centrifuged, filtered through 0.2 micron spinfilter and the amount of each compound in the supernatants was quantitated using LC/MS/MS.

## Cc1noc(C2CCCNC2)n1 (racemic) [Compound 82, 3-Methyl-5-(piperidin-3-yl)-1,2,4-oxadiazole]
In vivo
  Kp at 1 hour: 2.38
Human FMO1 Supersomes
  extent of metabolism in FMO Supersomes: less than half metabolized
other
  PAMPA (? × 106): 2.56 ? × 106
  rate of crossing the lipid layer in the PAMPA test: much higher rate
